Experimental data as given in PMC12042267, “Expanding the Family of Monosubstituted 15-Membered Pyridine-Based Macrocyclic Ligands for Mn(II) Complexation in the Context of MRI” (Inorganic Chemistry, 2025).

Key:
[1] = Simultaneous analysis of 17O NMR and 1H NMRD data (Solomon-Bloembergen-Morgan); type: physicochemical
Description: ^1H NMRD profiles on aqueous solutions of MnL2 (cMn2+ = 0.98 mM; pH = 7.22) and MnL3 (cMn2+ = 0.96 mM; pH = 7.20) were recorded at 25 and 37 °C on a SMARTracer Fast Field Cycling NMR relaxometer (Stelar; 0.00024–0.24 T, 0.01–10 MHz ^1H Larmor frequency) and a WP80 NMR electromagnet adapted to variable-field measurements (Bruker; 0.47–1.88 T, 20–80 MHz ^1H Larmor frequency). The temperature was maintained by a gas flow and monitored by a VTC91 temperature control unit based on previous calibration with a Pt resistance temperature probe.
Variable-temperature ^17O NMR measurements of aqueous solutions of MnL2 (cMnL = 3.70 mmol·kg^–1, pH = 7.03) and MnL3 (cMnL = 3.72 mmol·kg^–1, pH = 7.2) were performed on a Bruker Avance III 400 MHz spectrometer (9.4 T, 54.2 MHz) in the temperature range 5–75 °C. The temperature was calculated after calibration with ethylene glycol and […]. Acidified water (HClO4, pH = 3.3) was used as a diamagnetic reference. The ^17O transverse relaxation times (T2) were obtained by using the CPMG spin–echo technique. To eliminate susceptibility contributions to the chemical shift, the sample was in a glass sphere placed in a 10 mm NMR tube. To improve the sensitivity, ^17O-enriched water (11.10% H2^17O, Cortecnet) was added to the solution to yield approximately 1% ^17O enrichment.
The ^17O NMR and NMRD data have been analyzed according to the Solomon–Bloembergen–Morgan theory of paramagnetic relaxation.[3] The least-squares fit was performed using Visualizeur/Optimiseur running on a MATLAB 8.3.0 (R2014a) platform.
^1H NMRD profiles were recorded at 25 and 37 °C in the magnetic field range 0.01–80 MHz (Figure 6, bottom). The reduced transverse ^17O relaxation rates were simultaneously fitted with ^1H NMRD data according to the Solomon–Bloembergen–Morgan theory (equations are given in SI). The fitted parameters are summarized in Table 6 and compared to those for seven-coordinate Mn(II) complexes of L1 and 15-pyN3O2 ligands, as well as of [Mn(H2O)6]^2+.
The shape of the ^1H NMRD curves reflects typical low-molecular-weight complexes. The profiles display one dispersion between 1 and 10 MHz as has been previously described for other complexes except [Mn(H2O)6]^2+.[49],[50] The hydration number of MnL2 and MnL3 was assumed in both cases to be q = 1 for a total coordination number of CN = 7, based on the X-ray crystal structure. In aqueous solution, the chloride or the acetonitrile that coordinates to Mn(II) in the solid state will be replaced by one water molecule to complete the coordination sphere of Mn(II). As it was described by Gale et al.,[51] the ^17O T2 values can also give an estimate of hydration number, provided the 1/T2r vs temperature curve has a maximum. This approach is not applicable for MnL2 and MnL3 since both systems are in the slow exchange regime in the entire temperature range studied. The lack of a fast exchange regime prevents the fit of the scalar coupling constant, A0/ℏ, as well which was therefore fixed to 38.6 MHz.[28]

[2] = Cyclic voltammetry of Mn(II) complexes in aqueous solution; type: physicochemical; conditions: aqueous 0.15 M KCl; for ΔE (peak separation): 100 mV s^–1; for Eox (oxidation peak) / Ered (reduction peak): 100 mV s^–1 scan rate; for Eox (oxidation peak) / Ered (reduction peak) / E1/2: vs Ag/AgCl
Description: All solvents (VWR International, Penta) and chemicals were purchased from commercial sources (Acros Organics, Merck) and used as received. 2-(Chloromethyl)pyridine hydrochloride and 2-(chloromethyl)benzimidazole were prepared according to the previously described procedures.[31],[32] The parent ligand 15-pyN3O2 was synthesized as previously described in the literature.[28],[33] Mass spectra were collected using an LCQ Fleet mass spectrometer (Thermo Scientific, Waltham, MA) equipped with an electrospray ion source and a three-dimensional (3D) ion-trap detector in the positive/negative mode (see SI, Figures S1 and S2). ^1H and ^13C NMR spectra were obtained using a 400-MR NMR spectrometer (Varian, Palo, Alto, CA) at 25 °C. The multiplicity of the signals is indicated as follows: s, singlet; d, doublet; t, triplet; m, multiplet; and bs, broad singlet. Deuterated solvent chloroform-d (99.9% of D) was purchased from Sigma-Aldrich and used as received. The atom numbering schemes used for the interpretation of NMR data are shown in Scheme 2. The carbon and hydrogen atoms were assigned according to the spectra obtained from the two-dimensional correlation experiments ^1H–^1H gs-COSY, ^1H–^13C gs-HMQC, and ^1H–^13C gs-HMBC (see SI, Figures S3–S10). Cyclic voltammetry was performed on a CHI600C electrochemical analyzer (CH Instruments, Inc., Austin, TX). IR spectra were measured on a Jasco FT/IR-4700 spectrometer (Jasco, Easton, MD) using the ATR technique on a diamond plate in the spectral range 4000–400 cm^–1 (see SI Figure S11). A conventional electrochemical three-electrode-type cell with a glassy carbon working electrode, a platinum wire auxiliary electrode, and either Ag/Ag^+ reference electrode (0.01 M AgNO3 in 0.1 M tetrabutylammonium perchlorate (TBAP) in CH3CN) or Ag/AgCl reference electrode filled with 3 M KCl solution was used during the measurements with the scan rate of 100 mV s^–1. The measurements were performed in an argon atmosphere either in 0.1 M TBAP solution in CH3CN or in 0.15 M aqueous solution of KCl as a supporting electrolyte with a scan rate of 100 mV s^–1 and at 1.5 mM concentration of the complexes. The internal ferrocene/ferrocenium standard (E1/2 = 0.459 V vs Ag/Ag^+ electrode, ΔE = 77 mV) was employed for measurements in CH3CN.
Thus, we carried out CV experiments on an aqueous solution of the Mn(II) complexes in 0.15 M KCl. […] The cyclic voltammogram of MnL3 is similar, showing an oxidation peak at Eox = +1004 mV and a reduction peak at Ered = 782 mV (E1/2 = 893 mV vs Ag/AgCl, ΔE = 222 mV) (Figure S23). The large separation between the oxidation and reduction peaks (ΔE) is characteristic of a quasi-reversible system. The irreversibility of the Mn(II)/Mn(III) redox process is quite common due to the lack of ligand-field stabilization for the high-spin d^5 configuration of Mn(II), with a consequent large inner-sphere contribution to electron transfer.[57] Even larger separation between the oxidation and reduction peaks was observed when the complexes were measured in acetonitrile (Figures S24 and S25 in SI).

SMILES	ErH (activation energy for the rotational motion) [1] [kJ mol^–1]	kex^298 (water exchange rate constant) [1]	kex^298 (water exchange rate) [1]	ΔH^‡ (activation enthalpy for the water exchange) [1] [kJ mol^–1]	ΔS^‡ (activation entropy for the water exchange) [1]	Δ^2 (trace of the square of the transient ZFS tensor) [1]	τrH^298 (rotational correlation time) [1] [ps]	τv^298 (correlation time for modulation of ZFS) [1] [ps]	ΔE (peak separation) [2] [mV]	Eox (oxidation peak) [2]	Ered (reduction peak) [2]	E1/2 [2] [mV]
O.[Mn+2].c1ccc(CN2CCOCCOCCNCc3cccc(n3)C2)nc1 [MnL2]	15.0 ± 0.5	0.46 × 10^7 s^–1	0.46 ± 0.02 10^7 s^–1	28.7 ± 1.36	–21 ± 5 J mol^–1K^–1	164 ± 10 10^18 s^–2	35 ± 4	8 ± 1	144	+994 mV	+850 mV	922
O.[Mn+2].c1cc2nc(c1)CN(Cc1nc3ccccc3[nH]1)CCOCCOCCNC2 [MnL3]	15.0 ± 0.5	0.23 × 10^7 s^–1	0.23 ± 0.02 10^7 s^–1	28.5 ± 2.5	–27 ± 7 J mol^–1K^–1	100 ± 10 10^18 s^–2	45 ± 2	13 ± 3	222	+1004 mV	782 mV	893
